The source of these data is publication PMC6130618, “Bioactivity-guided isolation of anti-proliferative compounds from endemic Centaurea kilaea” (Pharmaceutical Biology, 2016).

Converted amounts (≈) assume the structure as drawn. Like-named read-outs stand apart in the source and are kept apart here. Where only a bound is given, the exact number is not on record here.

Series [1] concerns MCF-7 (breast adenocarcinoma). Briefly: MTT anti-proliferative assay, MCF-7. In kind it is cell-based. The settings on record: Homo sapiens, MCF7; MCF-7, MTT, 48 h, 0.5–50 μg/mL, mean ± SD; read-out: Cytotoxic activity IC50, MCF-7. As to the method: (§1) Anti-proliferative activity of compounds (0.5–50 μg/mL) against three human cancer cell lines were carried out by MTT test as specified in our previous study (Sen et al. [2015]). Compounds were tested for their cytotoxic activities. Cell viability and cytotoxic activity profile of the compounds were analyzed using the MTT assay (Mosman 1983; Woerdenbag et al. [1986]; Beekman et al. [1997]). MTT is cleaved to formazan by the ‘succinate-tetrazolium reductase’ system (EC 1.3.99.1) which belongs to the mitochondrial respiratory chain and is active only in viable cells. Different cell lines were used for the determination of cytotoxic activity [HeLa; (ATCC®, CCL- 2™), MCF-7 (ATCC®, HTB-22™), PC-3; (ATCC®, CRL-1435™)]. The cells were cultured with DMEM (Dulbecco’s Modified Eagle’s Medium) supplemented with 10% FBS (Foetal bovine serum), 1% L-glutamine and antibiotic solutions (penicillin–streptomycin–amphotericin).
(§2) In vitro cytotoxicity test was done by the method of modified Woerdenbag et al. ([1986]). The MTT metabolic assay was carried out with cells seeded at a density of 1 × 10^4 cells/well in 96-well flat-bottom cell culture plates with 100 μL of opti-MEM and 24–48 h incubation at 37 °C, 5% CO2. The following day, media was aspirated and the compounds were dissolved in DMSO and diluted with medium before they were added to the cell cultures at different concentrations. Cells were incubated for 48 h at 37 °C, 5% CO2. After the incubation period, 10 μL of the MTT labelling reagent [final concentration […] (Cell proliferation kit MTT, Roche, Germany)] was added to each well. The cultures were incubated for 4–12 h in a humidified atmosphere (e.g., 37 °C, 5% CO2) and 100 μL of the solubilization buffer was added into each well. The plate was allowed to stand overnight in the incubator in a humidified atmosphere (e.g., 37 °C, 5% CO2), the formazan precipitates were solubilized. Absorbance of the formazan product was measured spectrophotometrically at 550 and 690 nm.

The subject of series [2] is PC-3 (prostate adenocarcinoma). Briefly: MTT anti-proliferative assay, PC-3. The format is cell-based. Particulars: Homo sapiens; PC-3, MCF-7 excluded; PC-3, MTT, 48 h, 0.5–50 μg/mL, mean ± SD; read-out: Cytotoxic activity IC50, PC-3. As to the method: as §1, §2
A general note: Formazan colour is commonly taken as a measure of viable cells.

Series [3] has as its system Hela (cervix adenocarcinoma). Briefly: MTT anti-proliferative assay, Hela. The format is cell-based. The settings on record: Homo sapiens, 48 h, 0.5–50 μg/mL, mean ± SD, read-out: Cytotoxic activity IC50, Hela. As to the method:
as §1, §2

Series [4] is described as follows: MTT cytotoxicity assay, normal cell line L-929. In kind it is cell-based. Particulars: L-929 mouse fibroblast cells (normal cell line), L-929 normal mouse fibroblast, 0.5–50 μg/mL, mean ± SD, read-out: Cytotoxic activity IC50, L-929. The procedure: [Worded in the source for another cell line; this cell line is reported under the same test.] as §1, §2
The subject of series [5] is human malignant melanoma (SK-MEL) cells. Also on record: method as in Erel et al. ([2011]). The settings on record: ref Erel et al. ([2011]); cited from earlier work.
The subject of a further series is MCF-7 cell lines. Also on record: method as in Bruno et al. [2005]; Csapi et al. [2010]. Particulars: ref Bruno et al. [2005], Csapi et al. [2010], cited from earlier work; for Activity on MCF-7 cell lines: same value converted.
Series [6] has as its system human ductal carcinoma (BT-549) cells. Also on record: method as in Erel et al. ([2011]). The settings on record: ref Erel et al. ([2011]); cited from earlier work.

With `COc1ccc(-c2cc(=O)c3c(O)c(OC)c(OC)cc3o2)cc1OC` [3′-O-Methyl eupatorin], the half-maximal inhibitory concentration (IC50) in series [1], in series [2] and in series [3] was over 50 µg/mL in each case. Moreover, the IC50 (as a rule, the midpoint of a concentration-inhibition curve) at 48 h in series [4] is over 50 µg/mL.
For `O=c1cc(-c2ccc(O)cc2)oc2cc(O)cc(O)c12` [Apigenin], the results for the IC50 in series [1], in series [2] and in series [3] were over 50 µg/mL, 44.13 ± 0.33 µg/mL (≈ 163 µM) and over 50 µg/mL, respectively. The IC50 at 48 h in series [4] was over 50 µg/mL.
Consider `COc1cc2oc(-c3ccc(O)cc3)cc(=O)c2c(O)c1OC` [Cirsimaritin], for which the IC50 in series [1] was over 50 µg/mL; in series [2] it was 4.3 ± 1.55 µg/mL (≈ 13.7 µM); in series [3] it was over 50 µg/mL. The IC50 at 48 h in series [4] is over 50 µg/mL.
Turning to `C=C1C(=O)O[C@@H]2/C=C(\CO)CC/C=C(\C)C[C@H](OC(=O)C(=C)[C@@H](O)CO)[C@@H]12` [Cnicin], the “Cytotoxic effect, SK-MEL” value in series [5] was “cytotoxic effect”. The IC50 is 3.25 ± 0.03 µg/mL (≈ 8.59 µM) in series [1]; 31.5 ± 0.71 µg/mL (≈ 83.3 µM) in series [2]; over 50 µg/mL in series [3]; 16.8 µM in the series on MCF-7 cell lines (another study); 4.2 µM in the series with MCF-7 cell lines (previous study). Further, the “Activity on MCF-7 cell lines” value was 6.37 µg/mL in the series on MCF-7 cell lines (another study) and 1.59 µg/mL with MCF-7 cell lines (previous study). For the same compound, the IC50 at 48 h in series [4] was over 50 µg/mL. In addition, the “Cytotoxic effect, BT-549” value in series [6] is listed as “cytotoxic effect”.
As to `C=C[C@]1(C)C[C@H](O)[C@H]2C(=C)C(=O)O[C@@H]2[C@H]1C(=C)CO` [Dehydromelitensin], the IC50 in series [1] is 28.9 ± 0.95 µg/mL (≈ 110 µM); in series [2], 25 ± 0.44 µg/mL (≈ 94.6 µM); in series [3], over 50 µg/mL. The IC50 at 48 h in series [4] was over 50 µg/mL.
Regarding `COc1ccc(-c2cc(=O)c3c(O)c(OC)c(OC)cc3o2)cc1O` [Eupatorin], the results for the IC50 in series [1], in series [2] and in series [3] were over 50 µg/mL, 35.69 ± 0.3 µg/mL (≈ 104 µM) and over 50 µg/mL, respectively. In addition, the IC50 at 48 h in series [4] is over 50 µg/mL.
`COc1cc(-c2cc(=O)c3c(O)c(OC)c(O)cc3o2)ccc1O` [Jaceosidin]: the IC50 in series [1], in series [2] and in series [3] was over 50 µg/mL throughout. For the same compound, in series [4], the half-inhibitory concentration (IC50) at 48 h was over 50 µg/mL.
`CC1(C)CC[C@]2(C(=O)O)CC[C@]3(C)C(=CC[C@@H]4[C@@]5(C)CC[C@H](O)C(C)(C)[C@@H]5CC[C@]43C)[C@@H]2C1` [Oleanolic acid]: the half-maximal inhibitory concentration (IC50) in series [1] is over 50 µg/mL; in series [2], 45.38 ± 0.42 µg/mL (≈ 99.4 µM); in series [3], over 50 µg/mL. Also, the IC50 at 48 h in series [4] was over 50 µg/mL.
As for `COc1ccc(-c2cc(=O)c3c(O)c(OC)c(O)cc3o2)cc1` [Pectolinarigenin], the values for the IC50 in series [1], in series [2] and in series [3] were 35.5 ± 2.7 µg/mL (≈ 113 µM), over 50 µg/mL and over 50 µg/mL, respectively. The IC50 at 48 h in series [4] is over 50 µg/mL.
In the case of `COc1ccc(-c2cc(=O)c3c(O)c(OC)c(OC)cc3o2)cc1` [Salvigenin], the IC50 in series [1], in series [2] and in series [3] was over 50 µg/mL each time. Further, the IC50 at 48 h in series [4] is over 50 µg/mL.
For `C=C1CC[C@]2(C)CC[C@]3(C)[C@H](CC[C@@H]4[C@@]5(C)CC[C@H](O)C(C)(C)[C@@H]5CC[C@]43C)[C@H]2[C@@H]1C` [Taraxasterol], the IC50 in series [1], in series [2] and in series [3] was over 50 µg/mL each time. Further, the IC50 at 48 h in series [4] was over 50 µg/mL.
